Square brackets hold non-standard residues; d marks the D form. Ends that are not written are not given here. Peptide text beside a SMILES is read from it. Nle = CCCC[C@H](N)C(=O)O
Tests used:
[1] = test system: SH-SY5Y Neuroblastoma Cells Exposed to Staurosporine; experiment: ATP levels in cells exposed to staurosporine (CellTiter-Glo); format: cell-based, human; conditions: peptide 10 μM plus staurosporine (40 μM), 18-20 hours; <100% cytoprotective, >100% synergistic
Description: Peptides were initially prepared as 10 mM stock in DMSO and tested at a final concentration of 10 μM (0.1% DMSO). […] […] CellTiter-Glo® Assay kit was purchased from Promega. SH-SY5Y human neuroblastoma cell line was purchased from American Type Culture Collection (Manassas, VA) and licensed from Memorial Sloan-Kettering Cancer Center (New York, NY). SH-SY5Y cells were grown in DMEM/F12 medium supplemented with 10% FBS with 100 IU/ml penicillin and 100 μg/ml streptomycin. Cultures were maintained at 37° C. in a humidified atmosphere of 5% CO2/95% air. SH-SY5Y cells were seeded at 30,000 cells per well on 96-well plates. […] ATP levels were determined using a CellTiter-Glo Assay kit (Promega) according to the manufacturer's instructions. Luminescence for each sample well on the plate was measured using a Cytation 3 plate reader (BioTek, Winooski, VT). […] A value less than 100% is indicative of a cytoprotective effect, while a value greater than 100% is indicative of a synergistic effect on viability.

A172 Cells = experiment: PrestoBlue cell viability assay; format: cell-based; conditions: human, 10 μM
Description: The effect of the peptides on cell viability can be assessed in cultured cells using suitable assay of viability such as the PrestoBlue® assay (Thermo Fisher Scientific, Waltham, MA). Peptides were initially prepared as 10 mM stock in DMSO and tested at a final concentration of 10 μM (0.1% DMSO). […] PrestoBlue Assay Reagent was purchased from Thermo Fisher Scientific. A172 human brain glioblastoma cell line was purchased from American Type Culture Collection (Manassas, VA). A172 cells were grown in DMEM supplemented with 10% FBS with 100 IU/ml penicillin and 100 μg/ml streptomycin. Cultures were maintained at 37° C. in a humidified atmosphere of 5% CO2/95% air. A172 cells were seeded at 8,000 cells per well on 96-well plates. […] Cell viability was determined using a PrestoBlue Assay reagent […] according to the manufacturer's instructions. Absorption for each sample well on the plate was measured using a Cytation 3 plate reader at 560 nm and 590 nm (BioTek, Winooski, VT). Activity was calculated relative to 0.1% DMSO untreated control. Treatment with 0.1% DMSO alone was used as the cell viability activity control. The relative standard deviation of the DMSO control was <5%.

C2C12 Mouse Myoblasts = experiment: Glucose utilization (glucose remaining in medium); format: cell-based; conditions: peptide 10 μM, 18-22 hours, relative to 0.1% DMSO treated control cells
Description: The effect of the peptides on glucose metabolism can be assessed using an assay of glucose utilization in cultured cells such as mouse myoblasts. Peptides were initially prepared as 10 mM stock in DMSO and used at a final concentration of 10 μM (0.1% DMSO). C2C12 mouse myoblast cell line was purchased from American Type Culture Collection (Manassas, VA). C2C12 cultures were maintained at 37° C. in a humidified atmosphere of 5% CO2/95% air with medium changes every second day. C2C12 cells were grown in DMEM (1 g/L glucose) supplemented with 10% FBS with 100 IU/ml penicillin and 100 μg/ml streptomycin. C2C12 cells were seeded at 7,000 cells per well on 96-well plates and cultured to confluence. Once the cell reached confluence the media was changed to DMEM (1 g/L glucose) supplemented with 2% HS with 100 IU/ml penicillin and 100 μg/ml streptomycin and maintained at 37° C. in a humidified atmosphere of 5% CO2/95% air. 5 days post-induction of differentiation fresh DMEM (1 g/L glucose) supplemented with 2% HS with 100 IU/ml penicillin and 100 μg/ml streptomycin was added to cultures. Cells were maintained at 37° C. in a humidified atmosphere of 5% CO2 and 95% air for 5 hours. After 5 hours test peptides at 10 μM or controls (0.5 mM or 1 mM metformin in 1% DMSO) prepared in fresh differentiation medium were added to cells and the cultures were maintained at 37° C. in a humidified atmosphere of 5% CO2/95% air for 18-22 hours. At the end of the incubation culture media was removed from the cells and the remaining glucose concentration was measured using a Glucose Assay kit (Abcam) according to the manufacturer's instructions, using a Cytation 3 plate reader at 570 nm (BioTek, Winooski, VT). Glucose concentrations in the medium were calculated relative to 0.1% DMSO treated control cells. The relative standard deviation of the result for the 0.1% DMSO treated control was <20%. Metformin was used as a positive control for reduction of glucose levels (increased glucose utilization glucose levels for treatment with metformin (1 mM) treatment were <20% of the 0.1% DMSO treated control value. The results are reported in Table 11.

3T3-L1 Mouse Adipocytes = experiment: Free fatty acid levels in cultured mouse adipocytes stimulated with isoproterenol; format: cell-based; conditions: peptide 10 μM, 20-22 hours then 3 hours with 1 nM isoproterenol; relative to isoproterenol treated cells
Description: The effect of the peptides on fatty acid metabolism can be assessed using an assay of free fatty acid levels in cultured cells such as mouse adipocytes. Peptides were initially prepared as 10 mM stock in DMSO and used at a final concentration of 10 μM (0.1% DMSO). […] Mouse 3T3-L1 cells purchased from ZenBio were seeded at 3,000 cells per well in 96-well plates in Pre-adipocyte Medium (Zen-Bio) and grown to confluence at 37° C. in a humidified atmosphere of 5% CO2/95% air. Two days after confluence, cells were placed in Adipocyte Differentiation Medium (Zen-Bio) and cultured for three additional days at 37° C. in a humidified atmosphere of 5% CO2/95% air. The culture media was then replaced with Adipocyte Maintenance Medium (Zen-Bio) and the cells maintained for an additional 9-12 days at 37° C. in a humidified atmosphere of 5% CO2/95% air with partial medium replacement every other day. Following 12-15 days of differentiation, test peptides were added at a final concentration of 10 μM in 0.1% DMSO and incubated for 20-22 hours in Adipocyte Maintenance Medium at 37° C. in a humidified atmosphere of 5% CO2/95% air. After 20-22 hours, 1 nM isoproterenol was added to all wells except untreated controls and test peptides were replenished. Insulin at 100 nM was added to control wells. Cells were incubated for 3 hours in Assay Buffer (Zen-Bio) at 37° C. in a humidified atmosphere of 5% CO2/95% air. Free fatty acid concentrations in the media were determined using a Free Fatty Acid Assay kit (Zen-Bio) according to the manufacturer's instructions using a Cytation 3 plate reader at 540 nm (BioTek, Winooski, VT). Absorbance values were corrected for untreated background and expressed relative to isoproterenol treated cells. Treatment with isoproterenol (1 nM) alone was used as the free fatty acid level stimulatory control. The relative standard deviation of the isoproterenol control was <10%. […] Free fatty acid levels for insulin (100 nM) treatment were <5% of the isoproterenol control value.

| Molecule | Percent of ATP Reduction Induced by Control [1] [%] | PrestoBlue cell viability, Percent of Control Activity (A172 Cells) [%] | Glucose Utilization (glucose concentration in medium), Percent of Untreated Control (C2C12 Mouse Myoblasts) [%] | Free Fatty Acid Levels, MEAN %ISO (3T3-L1 Mouse Adipocytes) [%] |
| --- | --- | --- | --- | --- |
| CCCC[C@H](NC(=O)[C@H](CCCNC(=N)N)NC(=O)[C@H](CCCNC(=N)N)NC(=O)[C@@H](N)CCCNC(=N)N)C(=O)N[C@@H](Cc1ccccc1)C(=O)N[C@@H](CO)C(=O)N[C@@H](CS)C(=O)N[C@@H](Cc1ccc(O)cc1)C(=O)N[C@H](C)C(=O)N[C@@H](Cc1ccc(O)cc1)C(=O)O [compound 20] (H-RRR[Nle]FSCY[dA]Y-OH; N-terminus and C-terminus assumed) | 101.4 | 104.7 | 113.2 | 65.6 |
| CC[C@H](C)[C@H](NC(=O)[C@@H](NC(=O)[C@H](Cc1c[nH]cn1)NC(=O)[C@H](CCCNC(=N)N)NC(=O)[C@H](CC(=O)O)NC(=O)[C@H](Cc1ccc(O)cc1)NC(=O)[C@H](CC(C)C)NC(=O)[C@H](CC(C)C)NC(=O)[C@@H](NC(=O)[C@@H](N)Cc1c[nH]c2ccccc12)C(C)C)C(C)C)C(=O)NCC(=O)NCC(=O)N[C@@H](CO)C(=O)N[C@@H](CC(C)C)C(=O)N[C@@H](CS)C(=O)N[C@H](C(=O)N[C@H](C(=O)N[C@H](C(=O)N[C@@H](CCC(N)=O)C(=O)N[C@H](C(=O)N[C@@H](CCC(=O)O)C(=O)N[C@H](C)C(=O)N[C@@H](Cc1ccc(O)cc1)C(=O)O)C(C)C)C(C)C)C(C)C)C(C)C [compound 23] (H-WVLLYDRHVIGGSLCVVVQVE[dA]Y-OH; N-terminus and C-terminus assumed) | 69.6 | 97.1 | 109.6 | 77.1 |
| CC[C@H](C)[C@H](NC(=O)[C@@H](NC(=O)[C@H](Cc1c[nH]cn1)NC(=O)[C@H](CCCNC(=N)N)NC(=O)[C@H](CC(=O)O)NC(=O)[C@H](Cc1ccc(O)cc1)NC(=O)[C@H](CC(C)C)NC(=O)[C@H](CC(C)C)NC(=O)[C@@H](NC(=O)[C@@H](N)Cc1c[nH]c2ccccc12)C(C)C)C(C)C)C(=O)NCC(=O)NCC(=O)N[C@@H](CO)C(=O)N[C@@H](CC(C)C)C(=O)N[C@@H](CS)C(=O)N[C@H](C(=O)N[C@H](C(=O)N[C@H](C(=O)N[C@@H](CCC(N)=O)C(=O)N[C@H](C(=O)N[C@@H](CCC(=O)O)C(=O)N[C@H](C)C(=O)O)C(C)C)C(C)C)C(C)C)C(C)C [compound 24] (H-WVLLYDRHVIGGSLCVVVQVE[dA]-OH; N-terminus and C-terminus assumed) | 80.4 | 96.7 | 109.1 | 93.7 |
| CC[C@H](C)[C@H](NC(=O)[C@@H](NC(=O)[C@H](Cc1c[nH]cn1)NC(=O)[C@H](CCCNC(=N)N)NC(=O)[C@H](CC(=O)O)NC(=O)[C@H](Cc1ccc(O)cc1)NC(=O)[C@H](CC(C)C)NC(=O)[C@H](CC(C)C)NC(=O)[C@@H](NC(=O)[C@@H](N)Cc1c[nH]c2ccccc12)C(C)C)C(C)C)C(=O)NCC(=O)NCC(=O)N[C@@H](CO)C(=O)N[C@@H](CC(C)C)C(=O)N[C@@H](CS)C(=O)N[C@H](C(=O)N[C@@H](CCC(N)=O)C(=O)N[C@H](C(=O)N[C@@H](CCC(N)=O)C(=O)N[C@H](C(=O)N[C@@H](CCC(=O)O)C(=O)N[C@H](C)C(=O)O)C(C)C)C(C)C)C(C)C [compound 25] (H-WVLLYDRHVIGGSLCVQVQVE[dA]-OH; N-terminus and C-terminus assumed) | 82.7 | 96.5 | 107.2 | 91.6 |
| GWVLLYDRHVIGGSLCVVVQVEAY [compound 22] | 73.1 | 96.5 | 70.4 | 84.7 |
| MAGVIRGVLVL [compound 8] | 92.6 | 92.0 | 115.0 | 76.9 |
| MLLILTLVLL [compound 2] | 91.6 | 94.4 | 113.5 | 80.7 |
| MMAGVIRGVLVL [compound 7] | 103.3 | 86.2 | 128.3 | 66.4 |
| MRQWILHNGGMSFFC [compound 12] | 98.0 | 100.5 | 113.6 | 67.1 |
| MRRRMFSCYLY [compound 17] | 94.2 | 100.6 | 121.7 | 46.1 |
| RQWILHNGGMSFFC [compound 13] | 103.8 | 99.1 | 115.0 | 74.0 |
| RRRMFSCYLY [compound 18] | 96.1 | 100.9 | 124.0 | 58.5 |

Source: patent US20240034753A1, “THERAPEUTIC PEPTIDES” (COHBAR, INC., priority 2020, published 2024)
